The text below walks through data of PubChem BioAssay AID1963828 (Molecular Pharmacology Branch, DTP, NCI, 2024).

The assay relates to 991263-137-R1-J2-PDC complex spheroid viability. Kind of assay: Anticancer human tumor 991263-137-R1-J2-PDC patient-derived colon adenocarcinoma cell line growth inhibition [POLQ]. The following applies: for viability, T/C: stronger effect = lower value. The procedure: Multicellular complex tumor spheroid response to Polymerase (POL) inhibitors (novobiocin, ART-558, RP6685) in combination with a variety of drugs and investigational agents in selected tumor cell lines
The POL inhibitors (novobiocin, ART-558, and RP6685) were evaluated both individually and in combination with standard of care and investigational anticancer small molecules within a complex spheroid model of solid tumors. . Complex spheroids include a stromal component modeled by human endothelial cells (HUVEC) and fibroblasts modeled by human mesenchymal stem cells (MSCs). The concentration ranges selected for each drug and investigational agent were based upon clinically achievable concentrations if the clinical Cmax of the agent was known.
Compounds. The drugs and investigational agents: novobiocin (NSC847541), ART-558 (NSC835418), RP-6685 (NSC848927), peposertib (NSC802822), ceralasertib (NSC780249), elimusertib (NSC800525), camonsertib (NSC841442), AZD-1390 (NSC803789), olaparib (NSC753686), talazoparib (NSC767125), rucaparib (NSC756644), sotorasib (NSC818433), MRTX-1133 (NSC836407), SN-38 (NSC673596), topotecan (NSC609699), epotoside (NSC141540), doxorubicin (NSC123127), gemcitabine (NSC613327), 5-fluorouracil (NSC19893), paclitaxel (NSC125973), vemurafenib (NSC761431), MSA-2 (NSC828583), SN-011 (NSC837082), adavosertib (NSC754352), prexasertib (NSC758257), carboplatin (NSC241240) and oxaliplatin (NSC266046), were obtained from the National Cancer Institute (NCI) Developmental Therapeutics Program Chemical Repository (21). The FDA-approved anticancer drug set is available from the Developmental Therapeutics Program at https://dtp.cancer.gov/organization/dscb/obtaining/. […] The stock solutions were prepared in dimethyl sulfoxide (DMSO, Sigma-Aldrich, St. Louis, MO, cat. D2650), except for the platinum compounds which were prepared in saline (Quality Biological, Gaithersburg, MD, cat. 114-055-101), at 800-fold the tested concentration and stored at -70 degrees C prior to their use. All drugs and investigational agents were tested over a range starting from a high concentration at or near the clinical Cmax and decreasing in half-log increments. If the clinical Cmax for an agent had not been determined, the highest concentration tested was 10 microM, except for SN-38, which was tested at a high concentration of 1 microM.
Cell Culture. All cells were maintained in an incubator at 37 degrees C and 5% CO2 with 95% humidity. The PDC lines were cultured according to standard operating procedures established by the NCI PDMR (https://pdmr.cancer.gov). Table 3 of the manuscript, lists the cell lines along with the number of the three cell types plated to form the mct-spheroids and media for tumor cell growth. After thawing, all PDC lines, except 997537-175-T-J1-PDC and 415267-285-R-J2-PDC, were cultured in Matrigel-coated flasks prepared with a working solution of 1X Ham's F-12 nutrient mix, without supplementation (Thermo Fisher Scientific, cat. 11765054), 100 U/mL penicillin-streptomycin (Thermo Fisher Scientific, cat. 15140122), and 2.5% Matrigel (Corning Inc., Corning, NY, cat. 354248) for the first three passages. The two PDC lines 997537-175-T-J1-PDC and 415267-285-R-J2-PDC were cultured on uncoated flasks. The 857933-349-R-J2-PDC line was cultured in 6C/Colon 1B media containing advanced DMEM/F-12 (Thermo Fisher Scientific, cat. 12634028), 10 mM HEPES (Thermo Fisher Scientific, cat. 15630080), 1X GlutaMAX supplement (Thermo Fisher Scientific, cat. 35050061), 0.1 mg/mL primocin (InvivoGen, San Diego, CA, cat. ant-pm-2), 10% defined fetal bovine serum, heat inactivated (HyClone Laboratories Inc., Logan, UT, cat. SH30070.03HI), 50% L-WRN conditioned media (ATCC, cat. CRL-3276), 1.25 mM N-Acetyl-L-cysteine (Sigma-Aldrich, cat. A9165), 10 mM nicotinamide (Sigma-Aldrich, cat. N0636), 1X B-27 supplement (Thermo Fisher Scientific, cat. 17504044), 1X N-2 supplement (Thermo Fisher Scientific, cat. […]

The mark [1] stands for this setting: compound alone, run of 01/08/2024.
The mark [2] stands for this setting: compound alone, run of 01/19/2024.

Values joined by “and” are separate entries in the source; they are usually repeats but may differ in a detail not shown here. Equal entries are not always repeated.
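Further: spheroids exposed to compounds for 7 days before readout.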

With `COC1C(OC(N)=O)C(O)C(Oc2ccc3c(O)c(NC(=O)c4ccc(O)c(CC=C(C)C)c4)c(=O)oc3c2C)OC1(C)C` (configuration not stated), the viability, T/C (compound 0.0316 µM) is 102% [middle of 12 runs] and the viability, T/C (compound 0.316 µM) was 103% [middle of 12 runs]. Besides, the IC50 under setting [1] is more than 10000 nM.
On to `COc1cc(C2c3cc4c(cc3C(OC3OC5COC(C)OC5C(O)C3O)C3COC(=O)C23)OCO4)cc(OC)c1O` (configuration not stated), for which the viability, T/C runs as follows: (compound 0.0316 µM) 105% and 96.4% and 99.6%; (compound 0.1 µM) 86.2% and 94.5% and 92.4%; (compound 1 µM) 97.8% and 95.9% and 92.5%; (compound 3.16 µM) 77.9% and 88.6% and 71.9%; (compound 10 µM) 69.9% and 77% and 77.1%. For the same compound, the concentration for half-maximal inhibition (IC50) (curve of compound) is more than 10000 nM.
Regarding `COc1ccc([C@@H](O)c2cc(-c3ncnc4cc(N5CCOCC5)ccc34)c(F)cc2Cl)nn1`, the viability, T/C was 105% and 102% and 82.6% (compound 0.0316 µM); 84.6% and 103% and 79.1% (compound 0.1 µM); 98.5% and 95.2% and 91.9% (compound 0.316 µM); 87% and 97.5% and 103% (compound 1 µM); 68% and 66.7% and 59.3% (compound 3.16 µM); 28.5% and 31.4% and 28.6% (compound 10 µM). Besides, the IC50 (curve of compound) was 5360 nM and 5450 nM and 4480 nM.
With `COc1cccc(OCCCN)c1-c1cc(Nc2cnc(C#N)cn2)n[nH]1`, the viability, T/C reads like this: (compound 0.00316 µM) 89.6% and 99.7% and 88.6%; (compound 0.01 µM) 98.1% and 107% and 85.7%; (compound 0.0316 µM) 101% and 94.9% and 94.6%; (compound 0.316 µM) 43.2% and 53.1% and 61.2%; (compound 1 µM) 40.1% and 42.8% and 46.3%. Moreover, the half-maximal inhibitory concentration (IC50) (curve of compound) is 90.9 nM and 464 nM and 750 nM.
`COc1cccc2c1C(=O)c1c(O)c3c(c(O)c1C2=O)CC(O)(C(=O)CO)CC3OC1CC(N)C(O)C(C)O1` (configuration not stated): the viability, T/C was 103% and 95.2% and 99.9% (compound 0.0316 µM); 106% and 91% and 88.5% (compound 0.1 µM); 77% and 85.2% (2×) (compound 0.316 µM); 51% and 54.2% and 48.5% (compound 1 µM); 29.6% and 40.6% and 40.8% (compound 3.16 µM); 41.7% and 36.5% and 38.3% (compound 10 µM). Further, the IC50 (curve of compound) was 903 nM and 1420 nM and 972 nM.
As for `Cc1cccc(N(C)C(=O)C2C(O)CCN2c2nc(C)cc(C(F)(F)F)c2C#N)c1` (configuration not stated), the viability, T/C runs as follows: (compound 0.0316 µM) 101% [middle of 13 runs]; (compound 0.1 µM) 99.2% [middle of 13 runs]; (compound 3.16 µM) 101% [middle of 13 runs]; (compound 10 µM) 100% [middle of 13 runs]. The IC50 was more than 10000 nM under setting [1] and more than 10000 nM under setting [2].
Consider `Cn1ncnc1[C@H]1c2n[nH]c(=O)c3cc(F)cc(c23)N[C@@H]1c1ccc(F)cc1`, for which the viability, T/C reads like this: (compound 0.000316 µM) 102% and 97.3% and 87.3%; (compound 0.001 µM) 93.6% and 88.1% and 88.5%; (compound 0.00316 µM) 102% and 104% and 109%; (compound 0.01 µM) 109% and 105% and 119%; (compound 0.0316 µM) 89.6% and 101% and 84.5%; (compound 0.1 µM) 106% and 112% and 105%. Besides, the IC50 (curve of compound) is more than 100 nM.
Take `Nc1ccc(C#CCN(C(=O)Cc2ncc(C(F)(F)F)cc2C(F)(F)F)c2ccc(F)cc2)nn1`: the viability, T/C is, setting by setting: (compound 0.0316 µM) 100% [middle of 13 runs]; (compound 0.1 µM) 101% [middle of 13 runs]; (compound 0.316 µM) 99.3% [middle of 13 runs]; (compound 1 µM) 102% [middle of 13 runs]; (compound 3.16 µM) 103% [middle of 13 runs]; (compound 10 µM) 101% [middle of 13 runs]. For the same compound, under setting [2], the IC50 is more than 10000 nM.
Take `Nc1ccn(C2OC(CO)C(O)C2(F)F)c(=O)n1` (configuration not stated): the viability, T/C reads like this: (compound 0.0316 µM) 90.8% and 85.4% and 75.5%; (compound 0.1 µM) 53.7% and 74.1% and 58.9%; (compound 0.316 µM) 69% and 61.1% and 58.6%; (compound 1 µM) 58.6% and 60.4% and 47.9%; (compound 3.16 µM) 37.6% and 56.2% and 37.2%; (compound 10 µM) 40.8% and 47% and 37.3%.
Take `O=C(c1cc(Cc2n[nH]c(=O)c3ccccc23)ccc1F)N1CCN(C(=O)C2CC2)CC1`: the viability, T/C (compound 0.0316 µM) is 106% and 90.8% and 97%; the viability, T/C (compound 0.1 µM) was 97.2% and 97.7% and 99.1%; the viability, T/C (compound 0.316 µM) is 84.8% and 95.7% and 101%; the viability, T/C (compound 1 µM) is 108% and 85.4% and 103%; the viability, T/C (compound 3.16 µM) is 105% and 92.7% and 98.1%. Also, where the note is “curve of compound”, the IC50 was more than 10000 nM.
In the case of `O=c1[nH]cc(F)c(=O)[nH]1`, the viability, T/C is 106% and 114% and 96.5% (compound 0.0316 µM); 90.3% and 99.3% and 92.5% (compound 0.1 µM); 76.8% and 93.5% and 94.8% (compound 0.316 µM); 94% and 95.8% and 91% (compound 1 µM); 91.7% and 85.1% and 80.9% (compound 10 µM). The IC50 (curve of compound) is more than 10000 nM.

Broadly, the viability, T/C is the ratio of treated to control. One may read the IC50 as the concentration at which inhibition is half-maximal.
